Test results: article PMC7359870 (Journal of the American Chemical Society, 2020)
Entries after “also recorded” stand apart in the source; their conditions may differ. Starred links: 1 amine or outer side, 2 acyl side, 3 side chain; linkers in the order of their positions; H or OH if unused. Non-standard residues stand in square brackets, D forms with d. Residues, ends and D or L forms follow the SMILES beside them. *: point of attachment. X1 = CC(C)C[C@H](NC(=O)N(Cc1ccccc1)C[C@@H](O)[C@H](Cc1ccccc1)N*)C(=O)N[C@H](C(N)=O)C(C)C; X2 = CC(C)[C@H](NC(=O)[C@H](C)NC(=O)N(Cc1ccccc1)C[C@@H](O)[C@H](Cc1ccccc1)N*)C(N)=O; NH(CH2)8CO = O=C(CCCCCCCCN[*:1])[*:2]; Boc = CC(C)(C)OC(=O)*; Aib = CC(C)(N)C(=O)O; Ava = NCCCCC(=O)O

Legend:
γ-secretase [1] = target: T1, γ-secretase (Homo sapiens, UniProt P49768); test: Enzyme inhibition kinetics; assay type: biochemical
[2] = target: presenilin-1 (PS1) N-terminal fragment (NTF) of γ-secretase (Homo sapiens, UniProt P49768); details: solubilized lysates from γ-secretase-expressing human embryonic kidney 293 cells
γ-secretase [3] = target: T1, γ-secretase; test: Cross-competition kinetic experiment between two inhibitors; assay type: biochemical; details: for cross-competition with HPI 2 for binding: second inhibitor HPI 2 (docking site); for cross-competition with TSA 17 for binding: second inhibitor TSA 17 (active site)
purified γ-secretase = purified γ-secretase (Homo sapiens, UniProt P49768); test: Purified enzyme assay: inhibition of γ-secretase; assay type: biochemical

| Compound | type of inhibition (enzyme inhibition kinetics) (γ-secretase [1]) | labelling of PS1 NTF by active-site-directed photoprobe TSA-Bpa-Bt [2] | labelling of PS1 NTF by docking-site-directed photoprobe HPI-Bpa-Bt [2] | further results |
| --- | --- | --- | --- | --- |
| CC[C@H](C)[C@H](NC(=O)[C@@H](NC(=O)[C@@H](NC(=O)C(C)(C)NC(=O)CNC(=O)[C@@H](NC(=O)OC(C)(C)C)C(C)C)C(C)C)C(C)C)C(=O)NC(C)(C)C(=O)N[C@@H](Cc1ccccc1)C(=O)N[C@H](C(=O)NC(C)(C)C(=O)NCCCCCCCCC(=O)N[C@H](C(=O)N[C@@H](Cc1ccccc1)[C@H](O)CN(Cc1ccccc1)C(=O)N[C@@H](CC(C)C)C(=O)N[C@H](C(N)=O)C(C)C)C(C)C)C(C)C [Compound 6, Boc-Val-Gly-Aib-Val-Val-Ile-Aib-Phe-Val-Aib-NH(CH2)8CO-Val-Phe-ψ-Phe-Leu-Val-NH2] (Boc-VG[Aib]VVI[Aib]FV[Aib][NH(CH2)8CO]V-X1) | noncompetitive inhibition | Decreased photolabelling; also recorded: decreased labelling | Decreased photolabelling; also recorded: decreased labelling | cross-competition with HPI 2 for binding (γ-secretase [3]): competed; cross-competition with HPI 2 for binding (γ-secretase [3]; listed as HPI-TSA 6): competes; cross-competition with TSA 17 for binding (γ-secretase [3]): competed; cross-competition with TSA 17 for binding (γ-secretase [3]; listed as HPI-TSA 6): competes |
| CC[C@H](C)[C@H](NC(=O)[C@@H](NC(=O)[C@@H](NC(=O)C(C)(C)NC(=O)CNC(=O)[C@@H](NC(=O)OC(C)(C)C)C(C)C)C(C)C)C(C)C)C(=O)NC(C)(C)C(=O)N[C@@H](Cc1ccccc1)C(=O)N[C@H](C(=O)NC(C)(C)C(=O)NCCCCC(=O)N[C@H](C(=O)N[C@@H](Cc1ccccc1)[C@H](O)CN(Cc1ccccc1)C(=O)N[C@@H](CC(C)C)C(=O)N[C@H](C(N)=O)C(C)C)C(C)C)C(C)C [Compound 5, Boc-Val-Gly-Aib-Val-Val-Ile-Aib-Phe-Val-Aib-NH(CH2)4CO-Val-Phe-ψ-Phe-Leu-Val-NH2] (Boc-VG[Aib]VVI[Aib]FV[Aib][Ava]V-X1) |  |  |  | potency compared to TSA 1 or HPI 2 (fold increase) (purified γ-secretase; relative to IC50 of TSA 1 or HPI 2): 4-to-6 fold |
| CC[C@H](C)[C@H](NC(=O)[C@H](NC(=O)[C@H](NC(=O)C(C)(C)NC(=O)CNC(=O)[C@@H](NC(=O)OC(C)(C)C)C(C)C)C(C)C)C(C)C)C(=O)NC(C)(C)C(=O)N[C@@H](Cc1ccccc1)C(=O)N[C@H](C(=O)NC(C)(C)C(=O)NCCCCCCCCC(=O)N[C@H](C(=O)N[C@@H](Cc1ccccc1)[C@H](O)CN(Cc1ccccc1)C(=O)N[C@@H](CC(C)C)C(=O)N[C@H](C(N)=O)C(C)C)C(C)C)C(C)C [Compound 9, Boc-Val-Gly-Aib-^DVal-^D Val-Ile-Aib-Phe-Val-Aib-NH(CH2)8CO-Val-Phe-ψ-Phe-Leu-Val-NH2] (Boc-VG[Aib][dV][dV]I[Aib]FV[Aib][NH(CH2)8CO]V-X1) |  |  |  | reduction of inhibitory potency relative to 6 (purified γ-secretase; relative to HPI-TSA 6): decreased nearly eight-fold |
| CC[C@H](C)[C@H](NC(=O)[C@@H](NC(=O)[C@@H](NC(=O)C(C)(C)NC(=O)CNC(=O)[C@@H](NC(=O)OC(C)(C)C)C(C)C)C(C)C)C(C)C)C(=O)NC(C)(C)C(=O)N[C@@H](Cc1ccccc1)C(=O)N[C@H](C(=O)NC(C)(C)C(=O)NCCCCCCCCC(=O)N[C@H](C(=O)N[C@@H](Cc1ccccc1)[C@H](O)CN(Cc1ccccc1)C(=O)N[C@@H](C)C(=O)N[C@H](C(N)=O)C(C)C)C(C)C)C(C)C [Compound 16] (Boc-VG[Aib]VVI[Aib]FV[Aib][NH(CH2)8CO]V-X2; N-terminus and C-terminus assumed) | noncompetitive inhibition | Decreased photolabelling; also recorded: decreased labelling | Decreased photolabelling; also recorded: decreased labelling |  |
